Patent US20080306007A1, “AGENTS FOR PROPHYLAXIS OR TREATMENT OF NEUROLOGICAL RELATED DISEASES AND CONDITIONS” (Newcastle Innovation Limited, priority 2007, published 2008)

Tests used:
[1] = system: synaptosomes (SV exocytosis); assay: KCl-evoked Ca2+-dependent glutamate release assay in synaptosomes; type: cell-based, rat; settings: peptide preincubated 30 min; KCl stimulation
Description: (§1) In all SV recycling studies synaptosomes were prepared from rat cerebral cortex by centrifugation on discontinuous percoll gradients (Dunkley et al. 1986). The glutamate release assay was performed as described before (Cousin and Robinson 2000a). Data is presented as Ca^2+-dependent glutamate release, calculated as the difference between release in plus and minus Ca^2+ solutions. Penetratin peptides (Genemed Synthesis) were preincubated with the synaptosomes for 30 min before stimulation and had no effect on Ca^2+-independent release of glutamate.
A block in SV turnover cannot be ascribed to an inhibition of SVE until an effect on exocytosis has been excluded. Two independent exocytosis assays were conducted to assess this: endogenous glutamate release and FM2-10 unloading. Neither the DynI769-784AA nor DynI769-784EE peptide had any significant effect on KCl-evoked Ca^2+-dependent glutamate release (DynI769-784AA […]±8.4% of control; DynI769-784EE […]±9.5% of control, FIG. 5c). Both peptides had small effects on FM2-10 unloading evoked by 30 mM KCl (DynI769-784AA −81.1±0.8% of control; DynI769-784EE −82.3±0.6% of control, FIG. 5d). Finally, the extent of SVE inhibition by the peptides was quantified by calculating “retrieval efficiency” which takes into account prior exocytosis; a value of less than one indicating a selective SVE inhibition. […]

[2] = system: synaptosomes (SV retrieval from the plasma membrane); assay: FM2-10 SV internalisation assay (purified SVs from synaptosomes); type: cell-based, rat
Description: (§2) Loading of FM2-10 (Molecular Probes) into recycling synaptosomal SVs was measured as previously described. Data is presented as Ca^2+-dependent FM2-10 unloading, which is the difference between release after loading in plus and minus Ca^2+ solutions. Where indicated, synaptosomes were preincubated with penetratin peptide for 30 min prior to stimulation of FM2-10 loading. […] The same assay was used to monitor the effect of penetratin peptide on SV exocytosis. However, in this instance, the synaptosomes were loaded with FM2-10 in plus Ca^2+ Krebs-like solution and, where indicated, were preincubated with penetratin peptide for 30 min prior to stimulation of FM2-10 unloading. Data is presented as Ca^2+-dependent FM2-10 unloading. The SV internalisation assay was performed as previously described.
If SVE was arrested before SV fission occurred, […]. SVs were purified and their fluorescence values were corrected for dye uptake in the absence of Ca^2+ (Ca^2+-dependent) and normalised to control (n=3, mean ±s.e.m.).

[3] = system: synaptosomes (SV exocytosis); assay: FM2-10 unloading (SV exocytosis) assay in synaptosomes; type: cell-based, rat; settings: evoked by 30 mM KCl; peptide preincubated 30 min before unloading
Description: as §2
A block in SV turnover cannot be ascribed to an inhibition of SVE until an effect on exocytosis has been excluded. Two independent exocytosis assays were conducted to assess this: endogenous glutamate release and FM2-10 unloading. […] Finally, the extent of SVE inhibition by the peptides was quantified by calculating “retrieval efficiency” which takes into account prior exocytosis; a value of less than one indicating a selective SVE inhibition. […]

[4] = system: U2OS cells; assay: Transferrin (Tfn) endocytosis (RME) in U2OS cells; type: cell-based; settings: 15 min peptide preincubation at various concentrations, Tfn 15 min at 37° C.
Description: Briefly, non-neuronal U2OS cells were preincubated with vehicle only or each peptide at various concentrations for 15 min. Cells were then incubated with Tfn for 15 min at 37° C., acid washed, fixed and internalized Tfn was detected by fluorescence microscopy. Quantitative analysis of endocytosis in the presence of different concentrations of the peptides is shown as mean fluorescence as a percent of fluorescence in control cells. The results shown in FIG. 11 are representative of 2 independent experiments. Endocytosis in control cells (no peptide) is expressed as 100%.

[5] = system: synaptosomes (synaptic vesicle turnover); assay: SV turnover assay (FM2-10 loading/unloading) in synaptosomes; type: cell-based, rat
Description: as §1, §2
SVE in synaptosomes was measured to determine whether the phosphorylation sites in dynamin I play a direct role in SVE. Since isolated nerve terminals cannot be transfected with DNA, a membrane-permeable peptide strategy was employed. Mimetic peptides (DynI769-784AA (SEQ ID No. 8) and DynI769-784EE (SEQ ID No. 9)) were designed corresponding to the amino acid sequence of the dynamin I phospho-box (FIG. 5a) and were tagged with a penetratin heptapeptide RRMKWKK (SEQ ID No. 12) to facilitate their delivery into synaptosomes. Briefly, synaptosomes were preincubated in the presence or absence of either penetratin peptide (250 μM) prior to FM2-10 loading stimulated by 30 mM KCl. Accumulated FM2-10 was unloaded by another KCl stimulus (indicated by the solid bar). […] If the phosphorylation-regulated syndapin I interaction itself is essential for SVE, the penetratin-linked peptides may inhibit the process. […] The DynI769-784AA peptide (250 μM) inhibited turnover by more than 40% (57.1±2.1% of control), compared to less than 20% with the DynI769-784EE peptide (250 μM, 81.1±2.4% of control).

[6] = target: T1, amphiphysin I binding to DynI-PRD (Rattus norvegicus, UniProt O08838); assay: GST-DynI-PRD pull-down with peptide competition: amphiphysin I
T1 construct: it is full-length amphiphysin I being detected in the present study; from tissue; host or cells: target from total rat brain extract; GST-DynI-PRD made in house in Escherichia coli
T1 sequence (O08838 1-683): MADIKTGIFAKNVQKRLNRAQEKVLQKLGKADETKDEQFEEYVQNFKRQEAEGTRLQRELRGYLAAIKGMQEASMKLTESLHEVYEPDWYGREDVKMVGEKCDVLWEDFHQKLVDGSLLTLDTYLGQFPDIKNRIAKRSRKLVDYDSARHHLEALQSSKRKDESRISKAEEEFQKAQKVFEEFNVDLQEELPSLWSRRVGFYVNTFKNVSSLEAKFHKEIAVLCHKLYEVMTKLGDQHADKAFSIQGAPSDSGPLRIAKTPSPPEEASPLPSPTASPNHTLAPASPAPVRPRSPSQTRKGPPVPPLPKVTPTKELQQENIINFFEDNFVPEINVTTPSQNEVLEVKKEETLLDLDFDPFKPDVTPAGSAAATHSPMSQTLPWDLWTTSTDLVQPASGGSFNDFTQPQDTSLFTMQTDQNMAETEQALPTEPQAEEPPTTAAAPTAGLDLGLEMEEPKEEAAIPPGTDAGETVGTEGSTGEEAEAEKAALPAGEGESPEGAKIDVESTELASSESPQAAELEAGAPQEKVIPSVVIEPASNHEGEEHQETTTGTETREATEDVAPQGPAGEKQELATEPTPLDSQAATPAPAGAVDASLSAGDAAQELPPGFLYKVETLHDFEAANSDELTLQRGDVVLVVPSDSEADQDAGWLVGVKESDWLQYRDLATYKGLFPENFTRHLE
Description: (§3) Total rat brain extract was prepared by homogenising brain tissue in ice-cold lysis buffer (1% Triton X-100, 150 mM NaCl, 25 mM Tris pH 7.4, 1 mM EDTA, 1 mM EGTA, 20 μg/ml leupeptin, 1 mM phenylmethylsulfonyl fluoride and EDTA-free Complete protease inhibitor (Roche)). The homogenate was centrifuged twice at 75,600 g for 30 min at 4° C. The supernatant was pre-cleared by addition of GSH-sepharose beads for 1 h, pelleted at 50 g for 5 min at 4° C., and the supernatant collected. GST-DynI-PRD recombinant proteins were then incubated with an equal amount of tissue lysate at 4° C. for 1 h. Beads were washed extensively with ice-cold 20 mM Tris pH 7.4 containing 1 mM EGTA, eluted in 2×SDS-PAGE sample buffer, resolved on 7.5-15% gradient SDS gels and stained with colloidal Coomassie Blue. Identification of proteins was by matrix-assisted laser desorption ionization time-of-flight mass spectrometry (MALDI-TOF MS). Some peptides were sequenced by tandem MS/MS.
A common characteristic of most binding sites for SH3 domains is the presence of the core amino acid motif PxxP, which is often followed or preceded by a basic Arg residue. […]
The binding site of amphiphysin I has previously been mapped to a single site, site 9 (FIG. 8), within the dynamin I-PRD (Grabs et al. 1997; Vallis et al. 1999). […] However, it is full-length amphiphysin I being detected in the present study. […]

[7] = system: p85 (the regulatory subunit of PI-3 kinase); assay: GST-DynI-PRD pull-down with peptide competition: p85; type: binding, rat; settings: increasing amounts of peptide
Description: as §3
(§4) A common characteristic of most binding sites for SH3 domains is the presence of the core amino acid motif PxxP, which is often followed or preceded by a basic Arg residue. There are 13 such motifs in the dynamin I PRD (numbered from site 1 at the N-terminus of the PRD at Pro-753 in dynamin I). […]

[8] = target: T2, Syndapin I binding to DynI-PRD (Rattus norvegicus, UniProt Q9Z0W5); assay: GST-DynI-PRD pull-down from rat brain lysate with peptide competition: syndapin I; settings: increasing amounts of peptide
T2 construct: from tissue; host or cells: target from total rat brain extract; GST-DynI-PRD made in house in Escherichia coli
Description: as §3, §4

[9] = target: T3, endophilin I binding to DynI-PRD (Rattus norvegicus, UniProt O35179); assay: GST-DynI-PRD pull-down with peptide competition: endophilin I; settings: increasing amounts of peptide
T3 construct: from tissue; host or cells: target from total rat brain extract; GST-DynI-PRD made in house in Escherichia coli
Description: as §3, §4

T3 sequence (O35179 whole entry): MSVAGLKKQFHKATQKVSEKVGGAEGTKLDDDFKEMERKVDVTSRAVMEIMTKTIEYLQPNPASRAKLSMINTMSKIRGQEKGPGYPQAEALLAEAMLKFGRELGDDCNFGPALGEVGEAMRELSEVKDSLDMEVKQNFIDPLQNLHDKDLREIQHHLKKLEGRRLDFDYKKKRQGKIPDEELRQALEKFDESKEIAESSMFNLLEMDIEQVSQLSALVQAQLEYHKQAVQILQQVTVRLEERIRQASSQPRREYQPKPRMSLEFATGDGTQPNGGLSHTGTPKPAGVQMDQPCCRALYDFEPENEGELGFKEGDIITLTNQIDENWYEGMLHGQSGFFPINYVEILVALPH
T2 sequence (Q9Z0W5 whole entry): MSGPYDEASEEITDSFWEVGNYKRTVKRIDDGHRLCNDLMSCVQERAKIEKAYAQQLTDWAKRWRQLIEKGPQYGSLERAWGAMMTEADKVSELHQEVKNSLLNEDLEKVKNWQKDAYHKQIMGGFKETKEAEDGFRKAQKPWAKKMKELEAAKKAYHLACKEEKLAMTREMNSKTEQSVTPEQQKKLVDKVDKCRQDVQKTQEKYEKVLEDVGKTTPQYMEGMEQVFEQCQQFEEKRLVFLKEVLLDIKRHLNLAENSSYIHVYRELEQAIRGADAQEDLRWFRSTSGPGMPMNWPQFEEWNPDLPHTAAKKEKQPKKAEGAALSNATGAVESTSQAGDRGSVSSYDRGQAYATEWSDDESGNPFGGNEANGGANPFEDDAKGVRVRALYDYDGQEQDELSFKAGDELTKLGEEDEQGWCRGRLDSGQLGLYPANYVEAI

Substance | KCl-evoked Ca2+-dependent glutamate release [1] | inhibition of FM2-10 accumulation in SVs [2] | FM2-10 accumulation in purified SVs (Ca2+-dependent) ([2]; n=3, mean ± s.e.m.) | FM2-10 unloading [3] | endocytosis of transferrin (Tfn), RME [4] | inhibition of SV turnover ([5]; peptide 250 μM) | SV turnover ([5]; peptide 250 μM, 30 min preincubation, FM2-10 loading with 30 mM KCl) | retrieval efficiency (SV turnover/exocytosis) ([5]; using data from either exocytosis assay, value below one = selective SVE inhibition) | peptide concentration needed to inhibit amphiphysin I binding, relative [6] | effect on amphiphysin I binding ([6]; later judged a non-specific artefact of Arg/Pro-rich peptide) | effect on binding to p85 [7] | Syndapin I binding to DynI-PRD [8] | inhibitory effect on endophilin I binding (relative to syndapin I) [9]
DynI769-784EE: Dynamin I phospho-box mimetic peptide (residues 769-784), EE mutant, tagged with penetratin heptapeptide RRMKWKK (RRMKWKKPAGRREPTSEPTPQRR; listed as Rattus norvegicus) | 90.2±9.5 % of control | no significant effect | 90.7±7.1 % of control | 82.3±0.6 % of control | without effect | less than 20% | 81.1±2.4 % of control | little effect | – | – | – | – | –
RRAPAVPPARPGSR (listed as Rattus norvegicus) [DynI783-796, Peptide corresponding to site 2 and site 3 region of dynamin I PRD] | – | – | – | – | – | – | – | – | 10 times higher peptide concentrations | inhibitory effect | little effect | greatly reduced in a concentration-dependent manner | five-fold weaker inhibitory effect
